Two compounds from patent US11872216B2, “Pharmaceutical formulation comprising cineole and amoxicillin” (priority 2016, dated 2024) can be followed below.

The subject of assay [1] is amoxicillin-sensitive bacterial strain of Escherichia coli (ATCC 8739). Put plainly: Enzymatic test in agar medium (inhibition halos of disks with or without β-lactamase and cineole). Format: cell-based. As for the experimental part:
(§1) This study is based on an enzymatic test first placing AMX combined with cineole in contact with ß-lactamases. The antibacterial activity of this antibiotic was then checked on an AMX-sensitive strain of Escherichia coli.
(§2) An amoxicillin-sensitive bacterial strain of Escherichia coli (ATCC 8739) was supplied by the national hygiene institute (INH-Rabat).
(§3) For each test performed, precultures of this E. coli strain of 24 h at 37° C. were prepared from this bacterial strain (frozen beforehand at −20° C.). From these precultures, bacterial inocula of 3.3×10^6 CFU/ml were prepared, adjusting the optical density to 540 nm.
Disks charged with antibiotics (diameter Ø=6 mm) were used for the enzymatic test in agar medium (AMX: amoxicillin and AMC: amoxicillin+clavulanic acid). They were supplied by the national hygiene institute (INH-Rabat). The AMX used for the enzymatic test in liquid medium was supplied by Sigma Aldrich (France).
The cineole was supplied by Sigma Aldrich (France). […]
Starting with a 24 h sensitive preculture of E. coli, eighteen Petri dishes of the agar MH medium were inoculated by surface plating. […] 10 μl of β-lactamase at 0.03 U/ml and 10 μl of cineole at 0.002 μl/ml were added to the surface of each of these three disks. • After incubation of the eight Petri dishes for 18 h at 37° C., the diameters of the inhibition halos were measured.

The test system is the same in assay [2]. Put plainly: Enzymatic test in liquid medium (growth inhibition with or without β-lactamase and cineole). The following applies: for % inhibition of growth: AMX 6 μg/ml, cineole 0.002 μl/ml, β-lactamase 0.03 U/ml where present, 22 hours at 30° C. It is filed as cell-based. How it is done: as §1, §2, §3
The ß-lactamase powder was supplied by Sigma Aldrich (France). It was dissolved according to the supplier's instructions, at 10 mg/ml in 0.1 M of Tris HCl at pH 7, containing 0.1% of gelatin. The ß-lactamase (0.03 U/ml) thus prepared was stored between 2 and 8° C.
The MIC of AMX at 100% with respect to the sensitive strain of Escherichia coli, determined via the microdilution method described previously, is of the order of 6 μg/ml.
Starting with a 24 h preculture of the sensitive strain of E. coli, bacterial inocula at 3.3×10^6 CFU/ml were prepared, adjusting the optical density to 540 nm.
Five control tubes and one test tube were prepared as described in table 6 (cf. below).
Tube no 1 corresponds to the sterility control of the medium. Tube no 2 corresponds to the positive control of viability of the bacterial strain. Tube no 3 corresponds to the control of sensitivity of the strain to AMX. Tube no 4 corresponds to the control of non-inhibition of bacterial growth with an infra-inhibitory concentration of cineole. Tube no 5 corresponds to the control of degradation of AMX in the presence of ß-lactamase. Tube no 6 corresponds to the test of the effect of cineole on amoxicillin inhibition by the β-lactamases.
The OD was measured at time t=0, and after 22 hours of incubation at 30° C. The percentage of inhibition was then calculated according to the formula described previously:
With ODT0=OD of the test tube at time t=0, ODT22=OD of the test tube after 22 h of incubation, ODC0=OD of the positive control tube at time t=0, ODC22=OD of the positive control tube after 22 h of incubation.

Values joined by “and” are separate entries in the source; they are usually repeats but may differ in a detail not shown here. Identical values can stand only once.

For `CC1(C)S[C@@H]2[C@H](NC(=O)[C@H](N)c3ccc(O)cc3)C(=O)N2[C@H]1C(=O)O` [amoxicillin, Amoxicillin], the “Diameters of the halos” value in assay [1] (disks AMX 20 μg, AMC 30 μg, β-lactamase 0.03 U/ml, cineole 0.002 μl/ml where added, 18 h at 37° C., 6 mm is the diameter of the disk, listed as AMX) was 15 mm and 15 ± 1.0 mm. Further, the “% inhibition of growth” value in assay [2] is listed as 100% ± 0.0. Besides, in assay [2] (ATCC8739, sensitive strain of Escherichia coli, microdilution, read-out: MIC of AMX at 100%), the MIC is approximately 6 µg/mL.
`CC12CCC(CC1)C(C)(C)O2` [cineole, 1,8-cineole]: the “infra-inhibitory concentration (highest concentration without any inhibition)” value in assay [1] (microdilution method) is recorded as approximately 0.002 μl/ml. Besides, the “% inhibition of growth” value is reported as “no growth inhibition” in assay [2] and 0% ± 0.0 in assay [2] (listed as Cineole).
